Twelve molecules from patent US20070232615A1, “Chemical Compounds” (priority 2004, published 2007) can be followed below.

Common to all, as to format: cell-based
Data set [1] concerns HIV-1 IIIB. The data set can be described thus: HOS HIV-1 infectivity assay, IIIB strain. The note with it: Human immunodeficiency virus 1; HOS cells, HIV-1 IIIB (T-tropic, CXCR4 utilizing), 96 h; read-out: HOS (3B). As to the method:
HOS HIV-1 Infectivity Assay
(§1) Compounds were profiled against two HIV-1 viruses, the M-tropic (CCR5 utilizing) Ba-L strain and the T-tropic (CXCR4 utilizing) IIIB strain. Both viruses were propagated in human peripheral blood lymphocytes. Compounds were tested for there ability to block infection of the HOS cell line (expressing hCXCR4/hCCR5/hCD4/pHIV-LTR-luciferase) by either HIV-1 Ba-L or HIV-1 IIIB. Compound cytotoxicity was also examined in the absence of virus addition.
HOS HIV-1 Infectivity Assay Format
(§2) HOS cells (expressing hCXCR4/hCCR5/hCD4/pHIV-LTR-luciferase) were harvested and diluted in Dulbeccos modified Eagles media supplemented with 2% FCS and non-essential amino acid to a concentration of 60,000 cells/ml. The cells were plated into 96-well plates (100 ul per well) and the plates were placed in a tissue culture incubator (37° C.; 5% CO2/95% air) for a period of 24 h.
(§3) Subsequently, 50 ul of the desired drug solution (4 times the final concentration) was added to each well and the plates were returned to the tissue culture incubator (37° C.; 5% CO2/95% air) for 1 h. Following this incubation 50 ul of diluted virus was added to each well (approximately 2 million RLU per well of virus). The plates were returned to the tissue culture incubator (37° C.; 5% CO2/95% air) and were incubated for a further 96 h.
(§4) Following this incubation the endpoint for the virally infected cultures was quantified following addition of Steady-Glo Luciferase assay system reagent (Promega, Madison, Wis.). Cell viability or non-infected cultures was measured using a CellTiter-Glo luminescent cell viability assay system (Promega, Madison, Wis.). All luminescent readouts are performed on a Topcount luminescence detector (Packard, Meridien, Conn.).

Data set [2] is described as follows: Compound cytotoxicity in the absence of virus (CellTiter-Glo). As to conditions: human; HOS cells, no virus; read-out: Cytotox (pIC50) (converted). How it is done: as §1, §2, §3, §4
In general terms: In ATP-based viability assays light output follows the ATP content of the culture.

The target of data set [3] is T1, human CXCR4 (Homo sapiens, UniProt P61073).
T1 construct: expressed in transfected cells; host or cells: HEK-293 cells (stably expressing human macrophage scavenger receptor class A type 1), transduced with human CXCR4 BacMam and Gqi5 BacMam baculoviruses
T1 sequence (P61073 whole entry): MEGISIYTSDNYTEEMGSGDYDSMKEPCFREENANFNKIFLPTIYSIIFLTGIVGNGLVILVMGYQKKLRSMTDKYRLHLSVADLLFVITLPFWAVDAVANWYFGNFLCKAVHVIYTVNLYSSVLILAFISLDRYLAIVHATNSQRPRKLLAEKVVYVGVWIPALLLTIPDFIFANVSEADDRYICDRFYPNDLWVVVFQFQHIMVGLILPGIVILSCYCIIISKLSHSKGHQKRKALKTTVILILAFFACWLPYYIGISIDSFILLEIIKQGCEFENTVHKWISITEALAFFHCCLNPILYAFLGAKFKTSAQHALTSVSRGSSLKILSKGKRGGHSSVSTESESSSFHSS
The data set can be described thus: Functional FLIPR assay (block of SDF-1 alpha induced [Ca2+]i change). As to conditions: HEK-293 cells with human CXCR4 and Gqi5 BacMam; antagonism of SDF-1 alpha; read-out: Functional assay (pIC50) (converted). How it is done:
Human embryonic kidney (HEK-293) cells were maintained and harvested as described above. Cells were plated in 96-well, black clear bottom, poly-lysine coated plates at a concentration of 40,000 cells per well in a final volume of 100 ul containing human CXCR4 BacMam (MOI=25) and Gqi5 BacMam (MOI=12.5). The cells were incubated at 37° C., 5% CO2, 95% humidity for 24 h to allow for protein expression.
After the required incubation time the cells were washed once with 50 ul of fresh serum-free DMEM/F12 media containing probenicid. 50 ul of dye solution was then added to the cells (Calcium Plus Assay Kit Dye; Molecular Devices) was dissolved in 200 ml of the above probenicid/BSA containing media and incubated for 1 h. Cell plates were transferred to a Fluorometric Imaging Plate Reader (FLIPR). Upon addition the effect of the compounds on the change in [Ca^2+]i was examined to determine if the compounds were agonists or antagonists (ability to block SDF-1 alpha activity) at the CXCR4 receptor. IC50 values are determined and pKb values are calculated using the Leff and Dougall equation: KB=IC50/((2+([agonist]/EC50ˆb)ˆ1/b−1) Where IC50 is that defined by the antagonist concentration-response curve [agonist] is the EC80 concentration of agonist used EC50 is that defined by the agonist concentration-response curve b is the slope of the agonist concentration-response curve.

The subject of data set [4] is HIV. The data set can be described thus: HOS HIV infectivity assay (Table 2, strain not given). The note with it: Human immunodeficiency virus 1, read-out: Activity Level. The method in brief:
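HOS cells expressing hCXCR4/hCCR5/hCD4 and an HIV-LTR-luciferase reporter were preincubated with compound for 1 h in DMEM/2% FCS. They were then infected with HIV-1 Ba-L or IIIB (about 2 million RLU/well) for 96 h at 37° C. Infection was read by luciferase luminescence, and viability in uninfected cultures by CellTiter-Glo.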

Data set [5] has as its system HOS (hCXCR4/hCCR5/hCD4/pHIV-LTR-luciferase) cells and HEK-293 cells expressing HIV-1 gp160 (HXB2 strain). The data set can be described thus: Cell/cell fusion assay (luciferase). The note with it: Homo sapiens, HEK293; 24 h, luciferase readout; read-out: Fusion assay (pIC50) (converted). From the text:
The complete coding sequences of HIV-1 tat (GenBank Accession No. X07861) and rev (GenBank Accession No. M34378) were cloned into pcDNA3.1 expression vectors containing G418 and hygromycin resistance genes, respectively. The complete coding sequence of the HIV-1 (HXB2 strain) gp160 envelope gene (nucleotide bases 6225-8795 of GenBank Accession No. K03455) was cloned into plasmid pCRII-TOPO. The three HIV genes were additionally inserted into the baculovirus shuttle vector, pFastBacMam1, under the transcriptional control of the CMV promoter. A construction of the pHIV-I LTR containing mutated NFkB sequences linked to the luciferase reporter gene was prepared by digesting pcDNA3.1, containing the G418 resistance gene, with Nru I and Bam HI to remove the CMV promoter. LTR-luc was then cloned into the Nru I/Bam HI sites of the plasmid vector. Plasmid preparations were performed after the plasmids were amplified in Escherichia coli strain DH5-alpha. The fidelity of the inserted sequences was confirmed by double-strand nucleotide sequencing using an ABI Prism Model 377 automated sequencer.
BacMam Baculovirus Generation
Recombinant BacMam baculoviruses were constructed from pFastBacMam shuttle plasmids by using the bacterial cell-based Bac-to-Bac system. Viruses were propagated in Sf9 (Spodoptera frugiperda) cells cultured in Hink's TNM-FH Insect media supplemented with 10% (v/v) fetal bovine serum and 0.1% (v/v) pluronic F-68 according to established protocols.
Human osteosarcoma (HOS) cells that naturally express human CXCR4 were transfected with human CCR5, human CD4 and the pHIV-LTR-luciferase plasmid using FuGENE 6 transfection reagent. Single cells were isolated and grown under selection condition in order to generate a stable HOS (hCXCR4/hCCR5/hCD4/pHIV-LTR-luciferase) clonal cell line. The cells were maintained in Dulbeccos modified Eagles media supplemented with 10% fetal calf serum (FCS), G418 (400 ug/ml), puromycin (1 ug/ml), mycophenolic acid (40 ug/ml), xanthine (250 ug/ml) and hypoxanthine (13.5 ug/ml) to maintain a selection pressure for cells expressing the LTR-luciferase, hCCR5 and hCD4, respectively. Human embryonic kidney (HEK-293) cells stably transfected to express the human macrophage scavenging receptor (Class A, type 1; GenBank Accession No. D90187), were maintained in DMEM/F-12 media (1:1) supplemented with 10% FCS and 1.5 ug/ml puromycin. The expression of this receptor by the HEK-293 cells enhances their ability to stick to tissue culture treated plasticware.
Transduction of HEK-293 cells
HEK-293 cells were harvested using enzyme-free cell dissociation buffer. The cells were resuspended in DMEM/F-12 media supplemented with 10% FCS and 1.5 ug/ml and counted. Tranductions were performed by direct addition of BacMam baculovirus containing insect cell media to cells. The cells were simultaneously transduced with BacMam baculovirus expressing HIV-1 tat, HIV-1 rev and HIV-1 gp160 (from the HXB2 HIV strain). Routinely an MOI of 10 of each virus was added to the media containing the cells. 2 mM butyric acid was also added to the cells at this stage to increase protein expression in transduced cells. The cells were subsequently mixed and seeded into a flask at 30 million cells per T225. The cells were incubated at 37° C., 5% CO2, 95% humidity for 24 h to allow for protein expression.
Cell/Cell Fusion Assay Format
HEK and HOS cells were harvested in DMEM/F-12 media containing 2% FCS and DMEM media containing 2% FCS, respectively, with no selection agents added. Compounds were plated as 1 ul spots in 100% DMSO on a 96-well CulturPlate plates. HOS cells (50 ul) were added first to the wells, followed immediately by the HEK cells (50 ul). The final concentration of each cell type was 20,000 cells per well. Following these additions, the cells were returned to a tissue culture incubator (37° C.; 5% CO2/95% air) for an additional 24 h.
Measurement of Luciferase Production […]

Consider `CC(C)N1CCN(c2cccc3nc(CN(C)C4CCCc5cccnc54)cn23)CC1` (centres unmarked) [Example 8, N-Methyl-N-({5-[4-(1-methylethyl)-1-piperazinyl]imidazo[1,2-a]pyridin-2-yl}methyl)-5,6,7,8-tetrahydro-8-quinolinamine], for which the IC50 in data set [1] was 16 nM; in data set [3], 9.77 nM; in data set [4] it was less than 100 nM; in data set [5], 22.4 nM. In addition, in data set [2], the IC50 at 96 h was more than 100000 nM.

As to `CC1CN(c2cccc3nc(CN(C)C4CCCc5cccnc54)cn23)CC(C)N1` (centres unmarked) [Example 12, N-{[5-(3,5-Dimethyl-1-piperazinyl)imidazo[1,2-a]pyridin-2-yl]methyl}-N-methyl-5,6,7,8-tetrahydro-8-quinolinamine], the IC50 is 87 nM in data set [1], 28.2 nM in data set [3], less than 100 nM in data set [4] and 166 nM in data set [5]. Moreover, in data set [2], the IC50 at 96 h was more than 100000 nM.

In the case of `CN(Cc1cn2c(N3CCN(C(=O)OC(C)(C)C)CC3)cccc2n1)C1CCCc2cccnc21` (centres unmarked) [Example 9, 1,1-Dimethylethyl 4-(2-{[methyl(5,6,7,8-tetrahydro-8-quinolinyl)amino]methyl}imidazo[1,2-a]pyridin-5-yl)-1-piperazinecarboxylate], the IC50 in data set [1] was 300 nM; in data set [3] it was 363 nM; in data set [5], 912 nM. Moreover, the IC50 at 96 h in data set [2] is more than 100000 nM.

As for `CN(C)[C@H]1CCN(c2cccc3nc(CN(C)[C@H]4CCCc5cccnc54)cn23)C1` [Example 91, (8S)—N-({5-[(3S)-3-(Dimethylamino)-1-pyrrolidinyl]imidazo[1,2-a]pyridin-2-yl}methyl)-N-methyl-5,6,7,8-tetrahydro-8-quinolinamine], in data set [4], the IC50 was less than 100 nM.

For `COc1ccc(CN(Cc2cn3c(N4CCN(C)CC4)cccc3n2)[C@H]2CCCc3cccnc32)cc1` [Example 74, (8S)—N-{[4-(Methyloxy)phenyl]methyl}-N-{[5-(4-methyl-1-piperazinyl)imidazo[1,2-a]pyridin-2-yl]methyl}-5,6,7,8-tetrahydro-8-quinolinamine], the IC50 in data set [4] is less than 100 nM.

As to `CN(C)[C@@H]1CCN(c2cccc3nc(CN(CC4CC4)[C@H]4CCCc5cccnc54)cn23)C1` [Example 99, (8S)—N-(Cyclopropylmethyl)-N-({5-[(3R)-3-(dimethylamino)-1-pyrrolidinyl]imidazo[1,2-a]pyridin-2-yl}methyl)-5,6,7,8-tetrahydro-8-quinolinamine], the IC50 in data set [4] is less than 100 nM.

Take `CN(Cc1cn2c(N3CC(N)C3)cccc2n1)C1CCCc2cccnc21` (centres unmarked) [Example 25, N-{[5-(3-Amino-1-azetidinyl)imidazo[1,2-a]pyridin-2-yl]methyl}-N-methyl-5,6,7,8-tetrahydro-8-quinolinamine]: in data set [4], the IC50 was less than 100 nM.

In the case of `CN1CCN(c2cccc3nc(CN(Cc4ccc(F)cc4)[C@H]4CCCc5cccnc54)cn23)CC1` [Example 62, (8S)—N-[(4-Fluorophenyl)methyl]-N-{[5-(4-methyl-1-piperazinyl)imidazo[1,2-a]pyridin-2-yl]methyl}-5,6,7,8-tetrahydro-8-quinolinamine], the IC50 in data set [4] was less than 100 nM.

`CN(C)CCOc1cccc2nc(CN(C)[C@H]3CCCc4cccnc43)cn12` [Example 104, (8S)—N-[(5-{[2-(Dimethylamino)ethyl]oxy}imidazo[1,2-a]pyridin-2-yl)methyl]-N-methyl-5,6,7,8-tetrahydro-8-quinolinamine]: the IC50 in data set [4] was less than 100 nM.

In the case of `CN(Cc1cn2c(-c3cccnc3)cccc2n1)C1CCCc2cccnc21` (centres unmarked) [Example 40, N-Methyl-N-{[5-(3-pyridinyl)imidazo[1,2-a]pyridin-2-yl]methyl}-5,6,7,8-tetrahydro-8-quinolinamine], the IC50 in data set [4] lay in the range of 500 to 10000 nM.

Turning to `CN(Cc1cn2c(NCCN3CCCCC3)cccc2n1)[C@H]1CCCc2cccnc21` [Example 103, (8S)—N-Methyl-N-[(5-{[2-(1-piperidinyl)ethyl]amino}imidazo[1,2-a]pyridin-2-yl)methyl]-5,6,7,8-tetrahydro-8-quinolinamine], the IC50 in data set [4] was less than 100 nM.

As to `CC(C)c1ccc(CN(Cc2cn3c(N4CCN(C)CC4)cccc3n2)[C@H]2CCCc3cccnc32)cc1` [Example 75, (8S)—N-{[4-(1-Methylethyl)phenyl]methyl}-N-{[5-(4-methyl-1-piperazinyl)imidazo[1,2-a]pyridin-2-yl]methyl}-5,6,7,8-tetrahydro-8-quinolinamine], the IC50 in data set [4] was less than 100 nM.
